Measurements taken from patent US5358936A, “Anionic furanose derivatives, methods of making and using the same” (Gordon; Paul, priority 1991, dated 1994).
“Also recorded” adds a separate entry of the source. Where a name gives a salt, the structure may show the parent alone. Read-outs that look alike come from different tables or passages of the source.

Legend:
platelet aggregation = assay: Mouse tail bleeding time (Example 31 B); type: in vivo
Description: A study of mouse tail bleeding time, which is an in vivo model of platelet aggregation and thrombosis was also conducted. In this widely employed model, bleeding was induced by a standardized transection of the tail tip and subsequent bleeding time was determined after vertical immersion of the tails in isotonic saline at 37° C. for thirty seconds.
Two compounds of the invention, Compound III and Compound VIII, were assessed as compared with aspirin, in another study of mouse tail bleeding time. In this study, the mice were housed in a standard animal room rather than in a noisy small animal isolator. Also, all three drugs were administered by an intraperitoneal route, rather than a subcutaneous route for Compound III and an intraperitoneal route for aspirin.

foot pad = assay: Inflammation provoked by carrageenan injection (Example 25); type: in vivo, mice
[1] = test system: myeloperoxidase (MPO); neutrophil infiltration; assay: Myeloperoxidase (MPO) accumulation in ZAS-swollen footpads (Example 23); type: in vivo, rat; details: ZAS alone 94.42 ± 12.81, normal 11.67 ± 1.87, P < 0.01
Description: (§1) The relationship of neutrophil infiltration to ZAS-induced swelling, and its drug-inhibition, was evaluated in another study. In this study, all procedures employing ZAS and Compound III were carried out as above, except that, Compound III was administered 45 minutes before ZAS, and standardized samples of the swollen footpads were removed and subjected to analysis for myeloperoxidase activity (MPO), according to the method of Lundberg et al., Inflammation, 7:247, (1983). MPO is a neutrophil-specificenzyme, and its assay is the most widely used method of identifying the degree of neutrophil participation in organ pathology.

rat stomachs = assay: Gastric pathology following inflammatory stress and indomethacin, fed rats (Example 20); type: in vivo, male Sprague Dawley rats; design: scale not given here; details: stress + indomethacin 30 mg/kg oral; Compound III 50 mg/kg subcutaneously where given; 24 hours
Description: Stress was induced by the following procedure. On day one, under ether anesthesia, 18 male Sprague Dawley rats were injected with a suspension of Zymosan A (1 mg/ml in normal saline; Sigma Chemical Co.) in each hind paw. Swelling developed and persisted. This treatment generated activated blood complement locally (including the C5a moiety), which then spread by the bloodstream throughout the animal.
Twenty-four hours later all rat paws were reinjected, this time with 0.1 ml of proinflammatory zymosan-activated rat serum containing additional amounts of inflammatory complement fragment C5a (as in Example 23, hereinafter). Five hours later 30 mg/kg indomethacin in an aqueous suspension was given to nine such rats by oral garage. These rats also received a subcutaneous injection of 0.1 ml normal saline. Nine other such rats were given indomethacin as above, and Compound III (50 mg/kg in normal saline subcutaneously). Four additional rats, not stressed (normal) were given water by garage as a placebo and saline subcutaneously. All rats were fed ad libitum on standard diet.
Twenty-four hours later all animals were sacrificed by ether euthanasia. Their stomachs were washed with saline and evaluated for ulcer-related pathology using an illuminated magnifying glass. This assay is similar to that reported by Kinney et al., J. Med. Chem., 33:327 (1990).

[2] = Acute toxicity in the mouse (Example 29 A); details: in vivo
Description: Acute intraperitoneal and oral toxicity of Compound III was studied in the mouse. Ten animals per dose were employed.

gastric ulcers = details: 50 mg/kg oral gavage 45 minutes before; for Frequency of ulcer-bearing rats: combined groups P<0.01
Description: In this method, a relatively large amount of ethanol is administered to rats by oral gavage (1.0 ml/200 gm), a procedure widely used to produce ordinary gastric ulceration. This injection, however, is given in combination with the intraperitoneal injection of heparin sulfate (10 mg/kg).
Compound III treatment was 50 mg/kg by oral garage in distilled water as diluent, at 45 minutes before ulcer induction.
The effects of ethanol alone and ethanol plus Compound III were assessed four hours after ethanol administration. The effects of ethanol plus heparin and ethanol plus heparin plus Compound III were assessed 24 hours after administration of the ulcer inducing combination. Ulcer formation was assessed as discussed in Example 20.
In this and the following examples, the potassium salt of the drug indicated by a Roman numeral was used; i.e., M is potassium (K^+).

rat hind paws = assay: Paw swelling provoked by zymosan-activated serum or normal serum (Example 23); type: in vivo; details: for Paw Swelling, ZAS (MPO study): 45 minutes before ZAS, ZAS alone 34.58 ± 2.45; for Paw Swelling, ZAS (MPO study) / Paw Swelling, ZAS: P < 0.01; for Swelling Change, ZAS / Swelling Change, normal serum (NS): 50 mg/kg oral
Description: For the present studies, zymosan-activated serum (ZAS) was made by incubating reconstituted lyophilized rat serum with 10 mg/ml zymosan A for one hour at 37° C., and then microfiltering to remove the zymosan.
In the first study, distilled water vehicle or 50 mg/kg Compound III in water were given by oral gavage to 9 control and 9 drug-treated adult male rats, respectively, and 90 minutes later the dorsoventral diameter of the hind feet were determined by Schnelltaster caliper. Sera [0.1 ml ZAS or 0.1 ml normal serum (NS)] were thereafter injected into opposite hind paws of the same rat under ether anesthesia. Below are given the paw swellings that developed at 2 and 3 hours, in response to ZAS and to normal serum, in the absence and presence of drug treatment. Data are reported previously.
as §1

[3] = Chronic toxicity in C57 Black mice by drinking water (Example 29 B); type: in vivo; details: 28 days, average daily dose 175 mg/kg
Description: However, eight mice were treated with Compound III by drinking water, for a period of 28 days. During this time, the average daily dose consumed was 175 mg/kg.

Description for physchem: Note that the term "apparent pK" in this context is meant to encompass the maximization of buffering that come both from solid-state dissolution and its titration as solute.

CC1(C)O[C@H]2O[C@H]([C@@H](COS(=O)(=O)O)OS(=O)(=O)O)[C@H](OS(=O)(=O)O)[C@H]2O1 [Compound III, 1,2-O-(2-Propylidene)-3,5,6-tri-O-sulfo-α-D-glucofuranose, tripotassium salt]
effect on mouse tail bleeding time, in words (platelet aggregation; 50 mg/kg and 150 mg/kg subcutaneously, P<0.05): more than doubled bleeding time | % Increase in bleeding time (platelet aggregation; 100 mg/kg intraperitoneal): 276% | Mouse Tail Bleeding Time (platelet aggregation; 100 mg/kg intraperitoneal, control 37.0 ± 5.25): 139.0 ± 22.51 s | potency relative to aspirin in prolonging mouse tail bleeding time / suppressing platelet aggregation (platelet aggregation; first study: aspirin 75 mg/kg IP, Compound III s.c. or oral, second study: all IP 100 mg/kg, tripotassium salt): equipotent with aspirin (75 mg/kg IP); also recorded: about equipotent with aspirin; also recorded: more effective than aspirin; also recorded: more potent than aspirin in the suppression of platelet aggregation | reduction in swelling (foot pad; subcutaneous, ibuprofen 50 mg/kg, Compound III 30 mg/kg, not significant): 26% | Swelling Change (foot pad; two hours, SOD 100 units IV, Compound III 50 mg/kg IV + 50 mg/kg IP): -74% | Foot-Pad Swelling (foot pad; two hours, SOD 100 units IV, Compound III 50 mg/kg IV + 50 mg/kg IP, control 3.8 ± 0.67): 0.82 ± 0.46 0.1 mm | MPO ([1]; 17 mg/kg, n = 6): 32.17 ± 2.83 Rel. Units | MPO ([1]; 50 mg/kg, n = 12): 41.67 ± 8.93 Rel. Units | Mean Pathology score (rat stomachs): 0.00 | Pathology score, individual rat (rat stomachs): 0.0 | LD50 ([2]; ip, read-out: LD50, intraperitoneal): 2800 mg/kg | NOAEL ([2]; iv): 3000 mg/kg | oral dose producing death ([2]; po): > 4.5 g/kg | Frequency of rats with bleeding ulcers (gastric ulcers; ethanol + heparin, 24 hours, P<0.01): 0% of Total in Group | Frequency of ulcer-bearing rats (gastric ulcers; ethanol + heparin, 24 hours): 25% of Total in Group | Frequency of rats with bleeding ulcers (gastric ulcers; ethanol, four hours): 0% of Total in Group | Frequency of ulcer-bearing rats (gastric ulcers; ethanol, four hours): 11% of Total in Group | pKa (physchem): < 0.5 | Paw Swelling, ZAS (MPO study) (rat hind paws; 17 mg/kg, n = 6): 16.83 ± 2.12 0.1 mm | Paw Swelling, ZAS (MPO study) (rat hind paws; 50 mg/kg, n = 12): 15.25 ± 3.99 0.1 mm | Paw Swelling, ZAS (rat hind paws; 2 hours post-ZAS, 50 mg/kg oral gavage 90 minutes before, control 27.22 ± 1.97): 10.78 ± 1.94 0.1 mm | Swelling Change, ZAS (rat hind paws; 2 hours): -60% | Swelling Change, normal serum (NS) (rat hind paws; 2 hours): -32% | Paw Swelling, normal serum (NS) (rat hind paws; 2 hours, 50 mg/kg oral gavage, control 11.22 ± 1.28): 7.67 ± 1.41 0.1 mm | Paw Swelling, ZAS (rat hind paws; 3 hours post-ZAS, 50 mg/kg oral gavage, control 28.89 ± 2.48): 16.11 ± 2.94 0.1 mm | Swelling Change, ZAS (rat hind paws; 3 hours): -44% | Swelling Change, normal serum (NS) (rat hind paws; 3 hours): -17% | Paw Swelling, normal serum (NS) (rat hind paws; 3 hours, 50 mg/kg oral gavage, control 11.44 ± 1.55): 9.44 ± 1.28 0.1 mm | body weight and appearance at termination versus controls [3]: weighed as much as the controls, and looked sleeker
